Measured values reported in patent US5191079A, “Quinolinecarboxylic acid derivatives” (priority 1990, dated 1993).

Assay: Acute toxicity, Experiment 6
Assay type: in vivo, F344/DuCrj male and female rats
Settings: oral, 1000 and 2000 mg/kg, one week
Procedure: 9,1-(Methylimino)methano-7-fluoro-8-(2-methoxymethylmorpholino)-5-oxo-5H-thiazolo[3,2-a]quinoline-4-carboxylic acid (compound of Example 20) [the compound (E) of the present invention] was suspended in 1% aqueous gum arabic to prepare a suspension in concentration of 100 mg/ml. The suspension was orally administered to F344/DuCrj male and female rats (5 weeks age, weighing 110 to 115 g in male, 91 to 95 g in female, 3 rats in each group), which had been fasted for 5 hours, at a rate of 1000 and 2000 mg/kg body weight of the test compound (E).

## COCC1CN(c2c(F)cc3c(=O)c(C(=O)O)c4scc5n4c3c2N(C)C5)CCO1 (stereo not shown) [Compound (E), 9,1-(Methylimino)methano-7-fluoro-8-(2-methoxymethylmorpholino)-5-oxo-5H-thiazolo[3,2-a]quinoline-4-carboxylic acid]
  death of rats: no death of rats was observed
